Results as given in paper PMC11724075, “Small-molecule-induced ERBB4 activation to treat heart failure” (Nature Communications, 2025).
“And” between values parts separate entries of the source, which are not always exact repeats. Identical values can stand only once.

What was measured:
mouse model of MI [1] = assay: Mouse model of MI (LAD ligation), echocardiography; type: in vivo; design: left-ventricular end-diastolic volume / left-ventricular end-systolic volume: unit not given here
Procedure: (§1) Twelve-week-old female and male Balb/cJ (Charles River, 000651) mice were randomized into either the ctrl or MI group. Mice in the MI group underwent surgical ligation of the LAD, while mice in the ctrl group underwent a sham procedure (n = 8 female mice, n = 10 male mice). Briefly, all mice received an injection of 0.1 mg/kg buprenorphine (Produlab Pharma) before induction of anesthesia with 8% sevoflurane (Zoetis). Anesthesia was maintained with 4.5% sevoflurane and mice were intubated and ventilated. An incision of 15 mm was made on the left side of the thorax and the thoracic cavity was opened at the third intercostal space using blunt forceps. The LAD was permanently ligated with a 8/0 polypropylene monofilament sutures (Ethicon, F1894) after which the thoracic cavity and skin were closed with 6/0 polypropylene monofilament sutures (Ethicon, F1841). and 5/0 polyamide 6 sutures (Ethilon, F2412H), respectively. Mice received another dose of 0.1 mg/kg buprenorphine 6–8 h after the initial dose. Two days after surgery, cardiac ultrasound was performed to exclude mice without successful MI (i.e. displaying hypokinesia in ≥2 out of 5 segments). […] Cardiac ultrasound was performed weekly. After 4 weeks of treatment, mice were euthanized, and hearts were collected.
Echocardiography was performed using the Vevo F2-LAZRX (FUJIFILM VisualSonics) and UHF57x probe. Mice were anesthetized with 1.5% isoflurane (Alvira, BE-V512222). Parasternal long-axis B-mode images and M-mode images were obtained and analyzed using VevoLAB software (FUJIFILM VisualSonics, Version 5.7.1). For the AngII experiments, measurements were obtained through analysis of the short-axis M-mode. For the MI experiments, measurements were obtained through analysis of the parasternal long-axis B-mode, of which the area and end-volume of the left ventricular cavity in diastole and systole were determined by tracing the endocardial border. Acquisitions, measurements and analyses were performed blinded.
Supplementary Table 2. Echocardiographic parameters. […]
Echocardiographic parameters obtained through left ventricular trace analysis of the parasternal long-axis obtained in B-mode in female wild-type mice that underwent a sham or MI operation: mice with […]
in MI/EF-1 group). (g) Echocardiographic parameters obtained through left ventricular trace analysis of the parasternal long-axis obtained in B-mode in male wild-type mice that underwent a sham or MI […]
male mice in MI/Veh group for T2 and T4). Echocardiographic parameters were measured weekly (indicated by ‘T’). All data are presented as mean (value of individual mice) ± SD, two-tailed unpaired […]
1 groups. Source data are provided as a Source Data file. AngII, angiotensin II; ANOVA, analysis of variance; Ctrl, control; DOX, doxorubicin; EF, ejection fraction; ERBB4, erythroblastic leukemia viral oncogene homolog 4; FS, fractional shortening; IVSd, interventricular septum thickness in diastole; IVSs, interventricular septum thickness in systole; LVIDd, left ventricular internal diameter in diastole; LVIDs, left ventricular internal diameter in systole; LVPWd, left ventricular posterior wall thickness in diastole; LVPWs, left ventricular posterior wall thickness in systole; MI, myocardial infarction; NA, non-activating pharmacophore-containing compound; SD, standard variation; Veh, vehicle.

mouse model of MI [2] = assay: Mouse model of MI, histology: CSA, capillaries, interstitial fibrosis, scar size; type: in vivo
Procedure: as §1
Hearts were fixed in 4% PFA, paraffin-embedded, and cut into 5-µm sections. Images were acquired with an Olympus BX43 microscope (Olympus Stream Motion Software) or a CELENA® S Digital Imaging System and analyzed with ImageJ 2.14.0 software. Collagen distribution was visualized by Masson’s trichrome staining. Cardiac total fibrosis was expressed as the ratio of positively stained fibrotic area (blue) to the total area and perivascular fibrosis as the ratio of fibrotic area to vascular lumen area. Scar size was determined by measuring the scar length over the […]. Hypertrophy and vascularisation were visualized via an isolectin-B4/WGA/DAPI staining. Quantification was performed by a person blinded to the treatment protocol.

[3] = Myocardial infarction, female wild-type mice, MI/EF-1, T0
[4] = Myocardial infarction, female wild-type mice, MI/EF-1, T2
[5] = Myocardial infarction, female wild-type mice, MI/EF-1, T3
[6] = Myocardial infarction, female wild-type mice, MI/EF-1, T4
[7] = Myocardial infarction, male wild-type mice, MI/EF-1, T0
[8] = Myocardial infarction, male wild-type mice, MI/EF-1, T2
[9] = Myocardial infarction, male wild-type mice, MI/EF-1, T3
[10] = Myocardial infarction, male wild-type mice, MI/EF-1, T4
[11] = female wild-type mice, MI/EF-1, T0, mean ± SD
[12] = female wild-type mice, MI/EF-1, T2, mean ± SD
[13] = female wild-type mice, MI/EF-1, T3, mean ± SD
[14] = female wild-type mice, MI/EF-1, T4, mean ± SD
[15] = male mice, MI/EF-1, 0 weeks after MI
[16] = male wild-type mice, MI/EF-1, T0, mean ± SD
[17] = male wild-type mice, MI/EF-1, T2, mean ± SD
[18] = male wild-type mice, MI/EF-1, T3, mean ± SD
[19] = male wild-type mice, MI/EF-1, T4, mean ± SD
[20] = MI experiment, female mice, MI/EF-1

Compound: O=C(NC1CC1)C(Sc1nc2ccccc2c(=O)n1C1CCCC1)c1ccccc1 (stereo not shown) [EF-1]
- LVEDA (mouse model of MI [1]; [3]): 21.8 ± 1.4 mm²
- LVEDV (mouse model of MI [1]; [3]): 56.7 ± 5.5 µL
- LVESA (mouse model of MI [1]; [3]): 15.5 ± 2.1 mm²
- LVESV (mouse model of MI [1]; [3]): 32.7 ± 6.7 µL
- LVEDA (mouse model of MI [1]; [4]): 25.7 ± 1.6 mm²
- LVEDV (mouse model of MI [1]; [4]): 73.6 ± 9.1 µL
- LVESA (mouse model of MI [1]; [4]): 20.8 ± 2.9 mm²
- LVESV (mouse model of MI [1]; [4]): 53.9 ± 14.5 µL
- LVEDA (mouse model of MI [1]; [5]): 26.5 ± 4.5 mm²
- LVEDV (mouse model of MI [1]; [5]): 80.3 ± 22.9 µL
- LVESA (mouse model of MI [1]; [5]): 21.2 ± 5.8 mm²
- LVESV (mouse model of MI [1]; [5]): 56.6 ± 25.0 µL
- LVEDA (mouse model of MI [1]; [6]): 26.5 ± 4.5 mm²
- LVEDV (mouse model of MI [1]; [6]): 80.3 ± 22.9 µL
- LVESA (mouse model of MI [1]; [6]): 21.2 ± 5.8 mm²
- LVESV (mouse model of MI [1]; [6]): 56.6 ± 25.0 µL
- LVEDA (mouse model of MI [1]; [7]): 24.7 ± 3.9 mm²
- LVEDV (mouse model of MI [1]; [7]): 67.1 ± 15.6 µL
- LVESA (mouse model of MI [1]; [7]): 17.6 ± 2.8 mm²
- LVESV (mouse model of MI [1]; [7]): 37.3 ± 8.9 µL
- LVEDA (mouse model of MI [1]; [8]): 34.8 ± 5.5 mm²
- LVEDV (mouse model of MI [1]; [8]): 118.7 ± 30.8 µL
- LVESA (mouse model of MI [1]; [8]): 29.7 ± 6.7 mm²
- LVESV (mouse model of MI [1]; [8]): 93.3 ± 36.1 µL
- LVEDA (mouse model of MI [1]; [9]): 36.6 ± 5.9 mm²
- LVEDV (mouse model of MI [1]; [9]): 124.6 ± 35.3 µL
- LVESA (mouse model of MI [1]; [9]): 31.3 ± 8.0 mm²
- LVESV (mouse model of MI [1]; [9]): 100.4 ± 42.0 µL
- LVEDA (mouse model of MI [1]; [10]): 35.9 ± 6.9 mm²
- LVEDV (mouse model of MI [1]; [10]): 119.8 ± 37.5 µL
- LVESA (mouse model of MI [1]; [10]): 30.5 ± 7.7 mm²
- LVESV (mouse model of MI [1]; [10]): 92.5 ± 40.6 µL
- effect on MI-induced increase in LVEDV and LVESV (in words) (mouse model of MI [1]; female mice, four-week treatment, EF-1 2 mg/kg/day): significantly attenuated the increase in LVEDV and LVESV
- effect on left ventricular ejection fraction (in words) (mouse model of MI [1]; female mice, four-week treatment, p = 0.0858): trend towards an increased EF
- EF (ejection fraction) (mouse model of MI [1]; [11]): 42.7 ± 8.1%
- LVEDA (mouse model of MI [1]; [11]): 21.8 ± 1.4 mm²
- LVEDV (mouse model of MI [1]; [11]): 56.7 ± 5.5 µL
- LVESA (mouse model of MI [1]; [11]): 15.5 ± 2.1 mm²
- LVESV (mouse model of MI [1]; [11]): 32.7 ± 6.7 µL
- EF (ejection fraction) (mouse model of MI [1]; [12]): 27.4 ± 14.1%
- LVEDA (mouse model of MI [1]; [12]): 25.7 ± 1.6 mm²
- LVEDV (mouse model of MI [1]; [12]): 73.6 ± 9.1 µL
- LVESA (mouse model of MI [1]; [12]): 20.8 ± 2.9 mm²
- LVESV (mouse model of MI [1]; [12]): 53.9 ± 14.5 µL
- EF (ejection fraction) (mouse model of MI [1]; [13]): 32.2 ± 12.4%
- LVEDA (mouse model of MI [1]; [13]): 26.5 ± 4.5 mm²
- LVEDV (mouse model of MI [1]; [13]): 80.3 ± 22.9 µL
- LVESA (mouse model of MI [1]; [13]): 21.2 ± 5.8 mm²
- LVESV (mouse model of MI [1]; [13]): 56.6 ± 25.0 µL
- EF (ejection fraction) (mouse model of MI [1]; [14]): 32.2 ± 12.4%
- LVEDA (mouse model of MI [1]; [14]): 26.5 ± 4.5 mm²
- LVEDV (mouse model of MI [1]; [14]): 80.3 ± 22.9 µL
- LVESA (mouse model of MI [1]; [14]): 21.2 ± 5.8 mm²
- LVESV (mouse model of MI [1]; [14]): 56.6 ± 25.0 µL
- effect on LVEDV, LVESV, or EF (in words) (mouse model of MI [1]; male mice): did not have affect LVEDV, LVESV, or EF
- ejection fraction (mouse model of MI [1]; [15]): 45.4182 and 46.7993 and 31.6272 and 37.5306 and 56.6563
- left-ventricular end-diastolic volume (mouse model of MI [1]; [15]): 76.7178 and 76.3835 and 40.6948 and 76.4847 and 65.2387
- left-ventricular end-systolic volume (mouse model of MI [1]; [15]): 41.874 and 40.6361 and 27.8242 and 47.7795 and 28.2468
- left-ventricular end-diastolic volume (mouse model of MI [1]; male mice, MI/EF-1, 3 weeks after MI): 90.4868 and 146.112 and 167.204 and 86.1633 and 133.043
- EF (ejection fraction) (mouse model of MI [1]; [16]): 43.6 ± 9.5%
- LVEDA (mouse model of MI [1]; [16]): 24.7 ± 3.9 mm²
- LVEDV (mouse model of MI [1]; [16]): 67.1 ± 15.6 µL
- LVESA (mouse model of MI [1]; [16]): 17.6 ± 2.8 mm²
- LVESV (mouse model of MI [1]; [16]): 37.3 ± 8.9 µL
- EF (ejection fraction) (mouse model of MI [1]; [17]): 23.2 ± 12.8%
- LVEDA (mouse model of MI [1]; [17]): 34.8 ± 5.5 mm²
- LVEDV (mouse model of MI [1]; [17]): 118.7 ± 30.8 µL
- LVESA (mouse model of MI [1]; [17]): 29.7 ± 6.7 mm²
- LVESV (mouse model of MI [1]; [17]): 93.3 ± 36.1 µL
- EF (ejection fraction) (mouse model of MI [1]; [18]): 22.0 ± 15.7%
- LVEDA (mouse model of MI [1]; [18]): 36.6 ± 5.9 mm²
- LVEDV (mouse model of MI [1]; [18]): 124.6 ± 35.3 µL
- LVESA (mouse model of MI [1]; [18]): 31.3 ± 8.0 mm²
- LVESV (mouse model of MI [1]; [18]): 100.4 ± 42.0 µL
- EF (ejection fraction) (mouse model of MI [1]; [19]): 25.2 ± 11.5%
- LVEDA (mouse model of MI [1]; [19]): 35.9 ± 6.9 mm²
- LVEDV (mouse model of MI [1]; [19]): 119.8 ± 37.5 µL
- LVESA (mouse model of MI [1]; [19]): 30.5 ± 7.7 mm²
- LVESV (mouse model of MI [1]; [19]): 92.5 ± 40.6 µL
- capillary density (#cap./100 CMs) (mouse model of MI [2]; [20]): 126.379 #cap./100 CMs and 126.085 #cap./100 CMs and 117.771 #cap./100 CMs and 154.255 #cap./100 CMs and 147.06 #cap./100 CMs and 123.257 #cap./100 CMs and 102.661 #cap./100 CMs
- capillary density (#cap./area) (mouse model of MI [2]; [20]): 2.749 #cap./area and 3.344 #cap./area and 2.607 #cap./area and 4.068 #cap./area and 3.029 #cap./area and 3.536 #cap./area and 2.904 #cap./area
- cardiomyocyte cross-sectional area in MI/EF-1 group (in words) (mouse model of MI [2]; both male and female mice): significant increase in cross-sectional area
- interstitial fibrosis in the remote myocardium of the infarcted hearts (in words) (mouse model of MI [2]; female mice): significantly lower
- number of capillaries per area (µm²) of the heart in MI/EF-1 group (in words) (mouse model of MI [2]; female mice): marked decrease in number of capillaries per area
- scar size (in words) (mouse model of MI [2]; female or male mice): did not affect scar size
